Measured values as given in patent US12084485B2 (Intarcia Therapeutics, Inc., priority 2020, dated 2024).
Like-named read-outs stand apart in the source and are kept apart here.

Columns and labels:
[1] = Acute food intake inhibition in Long Evans rats after bolus SC dosing (BioDAQ); assay type: in vivo, rat; settings: 30 mcg SC bolus
[2] = Weight-loss efficacy in LE DIO rats after bolus SC dosing; assay type: in vivo, rat; settings: male LE DIO rats, from baseline and vehicle control (ΔΔ %)
[3] = Body weight changes in LE rats after bolus SC dosing; assay type: in vivo, rat; settings: 30 mcg/kg SC bolus
[4] = Body composition (quantitative magnetic resonance) in male LE DIO rats; assay type: in vivo, rat; settings: day 26
[5] = Comparative in vivo weight loss potency, A120 vs semaglutide, DIO rats (28 days); set-up: species or system rat
[6] = Body composition in male ZDF rats; assay type: in vivo, rat; settings: day 25
HbA1c = test: Comparative in vivo HbA1c lowering potency, A120 vs semaglutide (28 days); set-up: species or system rat
[7] = Stability in DMSO or DI water at 37° C. (purity by LC/MS and HPLC); assay type: physicochemical
[8] = Solubility in saline or DI water at room temperature (visual inspection); assay type: physicochemical; settings: room temperature, as TFA salt unless indicated otherwise
[9] = cited from earlier work
[10] = ΔΔ % weight decrease in DIO rat at day 27
[11] = ΔΔ % change in HbA1c in ZDF rat at day 27
[12] = solute Saline, TFA salt unless indicated otherwise

Compound | % Food Intake Inhibition from Vehicle, 0-24 hr [1] | % Food Intake Inhibition from Vehicle, 25-48 hr [1] | % Food Intake Inhibition from Vehicle, 49-72 hr [1] | % Food Intake Inhibition from Vehicle, 73-96 hr [1] | DIO Weight Loss (30 mcg/kg SC bolus) % Weight change from Vehicle 2 d [2] | DIO Weight Loss (30 mcg/kg SC bolus) % Weight change from Vehicle 3 d [2] | DIO Weight Loss (30 mcg/kg SC bolus) % Weight change from Vehicle 4 d [2] | % Weight change from Vehicle, 1 d [3] | % Weight change from Vehicle, 2 d [3] | % Weight change from Vehicle, 3 d [3] | % Weight change from Vehicle, 4 d [3] | further results
CC[C@H](C)[C@@H]1NC(=O)[C@H](Cc2ccccc2)NC(=O)[C@H](CCCCN)NC(=O)[C@@H](NC(=O)[C@H](C)NC(=O)[C@H](C)NC(=O)[C@H](CCC(=O)O)NC(=O)[C@H](CCCCNC(=O)CC[C@H](NC(=O)CC[C@H](NC(=O)COCCOCCNC(=O)CCCCCCCCCCCCCCCCCCC(=O)O)C(=O)O)C(=O)O)NC(=O)[C@H](CCC(=O)O)NC(=O)[C@H](Cc2ccc(O)cc2)NC(=O)[C@H](CCC(N)=O)NC(=O)[C@H](CCCCN)NC(=O)[C@H](CO)NC(=O)[C@@H](NC(=O)[C@H](CC(=O)O)NC(=O)[C@H](CO)NC(=O)[C@@H](NC(=O)[C@H](Cc2ccccc2)NC(=O)[C@@H](NC(=O)CNC(=O)[C@H](CCC(=O)O)NC(=O)C(C)(C)NC(=O)[C@@H](N)Cc2c[nH]cn2)[C@@H](C)O)[C@@H](C)O)C(C)C)CCCCNC(=O)CC[C@@H](C(=O)N[C@@H](Cc2c[nH]c3ccccc23)C(=O)N[C@@H](CC(C)C)C(=O)N[C@@H](CCCCN)C(=O)N[C@@H](CC(N)=O)C(=O)NCC(=O)NCC(=O)N2CCC[C@H]2C(=O)N[C@@H](CO)C(=O)N[C@@H](CO)C(=O)NCC(=O)N[C@@H](C)C(=O)N2CCC[C@H]2C(=O)N2CCC[C@H]2C(=O)N2CCC[C@H]2C(=O)N[C@@H](CO)C(N)=O)NC1=O [Compound A137] | −67.0% | −69.0% | −25.7% | −14.7% | −3.0% | −2.9% | −2.7% | −4.7% | −6.6% | −6.0% | −4.8% | –
semaglutide | – | – | – | – | – | – | – | – | – | – | – | changes in body composition [4]: primarily due to fat mass loss; % Weight loss EC50 [5, 10]: 3.9 ng/mL; % Weight loss ED50 [5, 10]: 23 µg/kg/day; % Weight loss at 300 mcg/kg/day dose ([5]; ΔΔ % weight decrease in DIO rat at day 27, 300 mcg/kg/day): 24%; changes in body composition [6]: primarily due to fat mass loss; % Change HbA1c EC50 (HbA1c; [11]): 6 ng/mL; % Change HbA1c ED50 (HbA1c; [11]): 36 µg/kg/day; % Change HbA1c at 300 mcg/kg/day dose (HbA1c; ΔΔ % change in HbA1c in ZDF rat at day 27, 300 mcg/kg/day): 4.8%
CC[C@H](C)[C@H](NC(=O)[C@H](Cc1ccccc1)NC(=O)[C@H](CC(C)C)NC(=O)[C@H](CCCNC(=N)N)NC(=O)[C@@H](NC(=O)[C@H](C)NC(=O)[C@H](CCC(=O)O)NC(=O)[C@H](CCCCNC(=O)CC[C@H](NC(=O)COCCOCCNC(=O)CCCCCCCCCCCCCCCCCCC(=O)O)C(=O)O)NC(=O)[C@H](CCC(=O)O)NC(=O)[C@H](Cc1ccc(O)cc1)NC(=O)[C@H](CCC(N)=O)NC(=O)[C@H](CCCCN)NC(=O)[C@H](CO)NC(=O)[C@H](CC(C)C)NC(=O)[C@H](CC(=O)O)NC(=O)[C@H](CCC(=O)O)NC(=O)[C@@H](NC(=O)[C@H](Cc1ccccc1)NC(=O)[C@@H](NC(=O)CNC(=O)[C@H](CCC(=O)O)NC(=O)C(C)(C)NC(=O)[C@@H](N)Cc1c[nH]cn1)[C@@H](C)O)[C@@H](C)O)C(C)C)C(=O)N[C@@H](CO)C(=O)N[C@@H](Cc1c[nH]c2ccccc12)C(=O)N[C@@H](CC(C)C)C(=O)N[C@@H](CCCCN)C(=O)N[C@@H](CC(N)=O)C(=O)NCC(=O)NCC(=O)N1CCC[C@H]1C(=O)N[C@@H](CO)C(=O)N[C@@H](CO)C(=O)NCC(=O)N[C@@H](C)C(=O)N1CCC[C@H]1C(=O)N1CCC[C@H]1C(=O)N1CCC[C@H]1C(=O)N[C@@H](CO)C(N)=O [Compound A162] | – | – | – | – | – | – | – | – | – | – | – | Stability @ 37° C. (% purity) Day 14 ([7]; solute DI H2O, 37° C., TFA salt unless indicated otherwise): 96.6%; Stability @ RT (% purity) Day 0 ([7]; solute DI H2O, TFA salt unless indicated otherwise, 1 mg/ml): 95.8%; Stability @ RT (% purity) Day 14 ([7]; solute DI H2O, TFA salt unless indicated otherwise): 94.7%; Stability @ RT (% purity) Day 28 ([7]; solute DI H2O, Day 28, TFA salt unless indicated otherwise): 94.5%; Stability @ 37° C. (% purity) Day 14 ([7]; solute Saline, 37° C., TFA salt unless indicated otherwise): 96.7%; Appearance of stability sample (cloudy / particulates) ([7]; solute Saline, 37° C., Day 28): (c); Stability @ 37° C. (% purity) Day 28 ([7]; solute Saline, 37° C., Day 28, TFA salt unless indicated otherwise): 85.5%; Stability @ RT (% purity) Day 0 [7, 12]: 97.9%; Stability @ RT (% purity) Day 14 [7, 12]: 93.7%; Stability @ RT (% purity) Day 28 ([7]; solute Saline, Day 28, TFA salt unless indicated otherwise): 94.9%; solubility ([8]; DI water, read-out: Solubility (mg/mL) in DI water): > 101 mg/mL; solubility ([8]; saline, read-out: Solubility (mg/mL) in saline): > 101 mg/mL
CC[C@H](C)[C@@H]1NC(=O)[C@H](Cc2ccccc2)NC(=O)[C@H](CCCCN)NC(=O)[C@@H](NC(=O)[C@@H](NC(=O)[C@H](C)NC(=O)[C@H](CCC(=O)O)NC(=O)[C@H](CCCCNC(=O)CC[C@H](NC(=O)CC[C@H](NC(=O)COCCOCCNC(=O)CCCCCCCCCCCCCCCCCCC(=O)O)C(=O)O)C(=O)O)NC(=O)[C@H](CCC(=O)O)NC(=O)[C@H](Cc2ccc(O)cc2)NC(=O)[C@H](CCC(N)=O)NC(=O)[C@H](CCCCN)NC(=O)[C@H](CO)NC(=O)[C@@H](NC(=O)[C@H](CC(=O)O)NC(=O)[C@H](CO)NC(=O)[C@@H](NC(=O)[C@H](Cc2ccccc2)NC(=O)[C@@H](NC(=O)CNC(=O)[C@H](CCC(=O)O)NC(=O)C(C)(C)NC(=O)[C@@H](N)Cc2c[nH]cn2)[C@@H](C)O)[C@@H](C)O)C(C)C)C(C)C)CCCCNC(=O)CC[C@@H](C(=O)N[C@@H](Cc2c[nH]c3ccccc23)C(=O)N[C@@H](CC(C)C)C(=O)N[C@@H](CCCCN)C(=O)N[C@@H](CC(N)=O)C(=O)NCC(=O)NCC(=O)N2CCC[C@H]2C(=O)N[C@@H](CO)C(=O)N[C@@H](CO)C(=O)NCC(=O)N[C@@H](C)C(=O)N2CCC[C@H]2C(=O)N2CCC[C@H]2C(=O)N2CCC[C@H]2C(=O)N[C@@H](CO)C(N)=O)NC1=O [Compound A135] | −52.6% | −62.2% | −29.4% | −8.0% | −3.7% | −4.8% | −4.3% | −4.3% | −7.4% | −6.4% | −4.2% | –
human amylin: 37-residue polypeptide hormone co-secreted with insulin from pancreatic β-cells | – | – | – | – | – | – | – | – | – | – | – | half-life in serum [9]: about 13 minutes
